From the CheMixHub ionic liquid set

Test: xn = mol fraction of the nth substance listed
Settings: 101 kPa

CC[N+](C)(CC)CCOC.F[B-](F)(F)F + O=C1CCCO1
Settings | electrical conductivity [S/m] | viscosity [mPa·s]
288.15 K, x1 = 0.1006 | 0.841 | 6.82
288.15 K, x1 = 0.2004 | 0.851 | 9.23
288.15 K, x1 = 0.3005 | 0.691 | 16.02
288.15 K, x1 = 0.4002 | 0.57 | 23.81
288.15 K, x1 = 0.4999 | 0.424 | 63.2
288.15 K, x1 = 0.6001 | 0.29 | 103.1
288.15 K, x1 = 0.6998 | 0.215 | 157.6
288.15 K, x1 = 0.7999 | 0.164 | 213
293.15 K, x1 = 0.1006 | 0.951 | 5.32
293.15 K, x1 = 0.2004 | 0.976 | 7.92
293.15 K, x1 = 0.3005 | 0.817 | 13.79
293.15 K, x1 = 0.4002 | 0.688 | 20.66
293.15 K, x1 = 0.4999 | 0.522 | 49.1
293.15 K, x1 = 0.6001 | 0.377 | 78.1
293.15 K, x1 = 0.6998 | 0.298 | 116.8
293.15 K, x1 = 0.7999 | 0.227 | 155.5
298.15 K, x1 = 0.1006 | 1.06 | 4.185
298.15 K, x1 = 0.2004 | 1.114 | 6.94
298.15 K, x1 = 0.3005 | 0.956 | 11.91
298.15 K, x1 = 0.4002 | 0.811 | 17.89
298.15 K, x1 = 0.4999 | 0.641 | 38.49
298.15 K, x1 = 0.6001 | 0.472 | 59.7
298.15 K, x1 = 0.6998 | 0.389 | 86.9
303.15 K, x1 = 0.1006 | 1.18 | 3.324
303.15 K, x1 = 0.2004 | 1.26 | 6.02
303.15 K, x1 = 0.3005 | 1.113 | 10.17
303.15 K, x1 = 0.4002 | 0.971 | 15.32
303.15 K, x1 = 0.4999 | 0.783 | 30.01
303.15 K, x1 = 0.6001 | 0.596 | 45.3
303.15 K, x1 = 0.6998 | 0.503 | 64.6
308.15 K, x1 = 0.1006 | 1.28 | 2.671
308.15 K, x1 = 0.2004 | 1.433 | 5.26
308.15 K, x1 = 0.3005 | 1.28 | 8.82
308.15 K, x1 = 0.4002 | 1.126 | 13.39
308.15 K, x1 = 0.4999 | 0.927 | 24.01
308.15 K, x1 = 0.6001 | 0.725 | 35.23
308.15 K, x1 = 0.6998 | 0.615 | 48.3
313.15 K, x1 = 0.1006 | 1.416 | 2.197
313.15 K, x1 = 0.2004 | 1.606 | 4.633
313.15 K, x1 = 0.3005 | 1.47 | 7.63
313.15 K, x1 = 0.4002 | 1.29 | 11.62
313.15 K, x1 = 0.4999 | 1.09 | 19.44
313.15 K, x1 = 0.6001 | 0.868 | 27.85
313.15 K, x1 = 0.6998 | 0.745 | 36.75
318.15 K, x1 = 0.1006 | 1.55 | 1.855
318.15 K, x1 = 0.2004 | 1.78 | 4.085
318.15 K, x1 = 0.3005 | 1.65 | 6.55
318.15 K, x1 = 0.4002 | 1.48 | 10.01
318.15 K, x1 = 0.4999 | 1.27 | 15.67
318.15 K, x1 = 0.6001 | 1.04 | 21.94
318.15 K, x1 = 0.6998 | 0.878 | 27.84
323.15 K, x1 = 0.1006 | 1.69 | 1.577
323.15 K, x1 = 0.2004 | 1.97 | 3.603
323.15 K, x1 = 0.3005 | 1.839 | 5.68
323.15 K, x1 = 0.4002 | 1.68 | 8.77
323.15 K, x1 = 0.4999 | 1.46 | 12.42
323.15 K, x1 = 0.6001 | 1.22 | 16.68
323.15 K, x1 = 0.6998 | 1.02 | 20.94
328.15 K, x1 = 0.1006 | 1.827 | 1.35
328.15 K, x1 = 0.2004 | 2.15 | 3.183
328.15 K, x1 = 0.3005 | 2.05 | 4.95
328.15 K, x1 = 0.4002 | 1.89 | 7.71
328.15 K, x1 = 0.4999 | 1.66 | 10.11
328.15 K, x1 = 0.6001 | 1.41 | 13.1
328.15 K, x1 = 0.6998 | 1.21 | 15.79
333.15 K, x1 = 0.1006 | 1.96 | 1.142
333.15 K, x1 = 0.2004 | 2.34 | 2.827
333.15 K, x1 = 0.3005 | 2.25 | 4.282
333.15 K, x1 = 0.4002 | 2.1 | 6.74
333.15 K, x1 = 0.4999 | 1.86 | 8.58
333.15 K, x1 = 0.6001 | 1.63 | 11.02
333.15 K, x1 = 0.6998 | 1.404 | 12.64
338.15 K, x1 = 0.1006 | 2.08 | 0.992
338.15 K, x1 = 0.2004 | 2.53 | 2.498
338.15 K, x1 = 0.3005 | 2.47 | 3.693
338.15 K, x1 = 0.4002 | 2.32 | 5.89
338.15 K, x1 = 0.4999 | 2.09 | 6.92
338.15 K, x1 = 0.6001 | 1.86 | 8.55
338.15 K, x1 = 0.6998 | 1.607 | 9.17
343.15 K, x1 = 0.1006 | 2.21 | 0.876
343.15 K, x1 = 0.2004 | 2.73 | 2.235
343.15 K, x1 = 0.3005 | 2.68 | 3.194
343.15 K, x1 = 0.4002 | 2.54 | 5.15
343.15 K, x1 = 0.4999 | 2.29 | 5.85
343.15 K, x1 = 0.6001 | 2.1 | 7.16
343.15 K, x1 = 0.6998 | 1.85 | 6.87
348.15 K, x1 = 0.1006 | 2.35 | 0.795
348.15 K, x1 = 0.2004 | 2.92 | 2.001
348.15 K, x1 = 0.3005 | 2.91 | 2.754
348.15 K, x1 = 0.4002 | 2.79 | 4.507
348.15 K, x1 = 0.4999 | 2.56 | 4.69
348.15 K, x1 = 0.6001 | 2.35 | 5.48
348.15 K, x1 = 0.6998 | 2.08 | 5.52
353.15 K, x1 = 0.1006 | 2.48 | 0.716
353.15 K, x1 = 0.2004 | 3.14 | 1.753
353.15 K, x1 = 0.3005 | 3.11 | 2.391
353.15 K, x1 = 0.4002 | 3.04 | 4.028
353.15 K, x1 = 0.4999 | 2.82 | 3.864
353.15 K, x1 = 0.6001 | 2.62 | 4.301
353.15 K, x1 = 0.6998 | 2.36 | 3.983
